Assay results as given in ChEMBL document CHEMBL4190178 (Medchemcomm, 2016).
Calls of active or inactive are those of the source. No cut-off for these calls is given here.

Columns and labels:
LNCaP [1] = assay: Cytotoxicity against human LNCAP cells assessed as reduction in cell viability after 24 hrs by MTT assay; type: functional, cell-based
[2] = target: T1, Alpha-1A adrenergic receptor (Homo sapiens) (UniProt P35348); assay: Antagonist activity at human alpha1A adrenergic receptor expressed in Chem1 cells assessed as decrease in epinephrine-induced calcium mobilization by measuring relative fluorescence unit at 1 uM by fluoforte dye based fluorescence assay relative to epinephrine; type: functional, cell-based
T1 sequence (whole entry): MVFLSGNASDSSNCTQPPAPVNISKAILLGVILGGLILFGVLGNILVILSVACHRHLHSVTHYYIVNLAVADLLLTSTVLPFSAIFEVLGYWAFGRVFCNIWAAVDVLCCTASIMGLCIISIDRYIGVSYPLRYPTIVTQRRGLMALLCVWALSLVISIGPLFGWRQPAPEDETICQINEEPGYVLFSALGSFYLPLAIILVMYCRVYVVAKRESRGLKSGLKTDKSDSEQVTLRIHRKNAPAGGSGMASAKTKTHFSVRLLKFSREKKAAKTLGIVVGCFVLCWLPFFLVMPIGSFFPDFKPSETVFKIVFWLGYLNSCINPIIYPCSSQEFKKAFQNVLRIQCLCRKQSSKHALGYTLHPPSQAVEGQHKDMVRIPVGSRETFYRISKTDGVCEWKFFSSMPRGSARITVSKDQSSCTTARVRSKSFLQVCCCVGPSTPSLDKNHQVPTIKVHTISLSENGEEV

[3] = target: T2, Androgen receptor (Homo sapiens) (UniProt P10275); assay: Antagonist activity at androgen receptor in human LNCAP cells assessed as decrease in testosterone-induced PSA expression levels at 10 uM after 24 hrs by Western blot analysis; type: cell-based
T2 sequence (whole entry): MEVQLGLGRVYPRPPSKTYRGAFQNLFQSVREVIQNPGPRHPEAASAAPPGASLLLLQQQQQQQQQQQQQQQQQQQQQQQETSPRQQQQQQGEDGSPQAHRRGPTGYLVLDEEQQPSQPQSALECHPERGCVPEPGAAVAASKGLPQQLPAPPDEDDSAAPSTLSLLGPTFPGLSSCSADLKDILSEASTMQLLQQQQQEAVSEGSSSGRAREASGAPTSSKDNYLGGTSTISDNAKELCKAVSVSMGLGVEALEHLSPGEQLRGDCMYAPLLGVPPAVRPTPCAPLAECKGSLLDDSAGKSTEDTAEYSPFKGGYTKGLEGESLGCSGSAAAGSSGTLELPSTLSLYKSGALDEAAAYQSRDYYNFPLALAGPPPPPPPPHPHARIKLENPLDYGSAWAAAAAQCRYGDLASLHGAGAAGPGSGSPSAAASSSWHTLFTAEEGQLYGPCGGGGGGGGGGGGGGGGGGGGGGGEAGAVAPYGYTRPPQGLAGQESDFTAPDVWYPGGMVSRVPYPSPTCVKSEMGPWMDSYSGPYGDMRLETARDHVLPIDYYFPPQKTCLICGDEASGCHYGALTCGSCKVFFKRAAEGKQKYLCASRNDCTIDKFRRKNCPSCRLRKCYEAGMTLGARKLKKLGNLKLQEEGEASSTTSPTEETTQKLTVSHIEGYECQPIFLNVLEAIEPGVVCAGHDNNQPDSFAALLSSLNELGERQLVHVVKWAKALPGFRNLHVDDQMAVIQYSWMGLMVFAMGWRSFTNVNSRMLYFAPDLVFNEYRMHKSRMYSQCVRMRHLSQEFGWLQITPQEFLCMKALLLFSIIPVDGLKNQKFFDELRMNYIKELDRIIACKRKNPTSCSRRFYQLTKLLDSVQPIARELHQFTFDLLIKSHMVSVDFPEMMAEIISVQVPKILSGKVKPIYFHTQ

PC-3 = assay: Antiproliferative activity against human PC3 cells assessed as decrease in cell viability after 24 hrs by MTT assay; type: functional, cell-based; details: PC-3, 24 h
DU-145 = assay: Antiproliferative activity against human DU145 cells assessed as decrease in cell viability after 24 hrs by MTT assay; type: functional, cell-based; details: DU-145, 24 h
LNCaP [4] = assay: Antiproliferative activity against human LNCAP cells assessed as decrease in cell viability after 24 hrs by MTT assay; type: functional, cell-based
[5] = target: T1, Alpha-1A adrenergic receptor (Homo sapiens); assay: Antagonist activity at human alpha1A adrenergic receptor expressed in Chem1 cells assessed as decrease in epinephrine-induced calcium mobilization by measuring relative fluorescence unit at 10 uM by fluoforte dye based fluorescence assay relative to epinephrine; type: functional, cell-based
Rattus norvegicus [6] = assay: Anti-androgenic activity in benign prostatic hyperplasia Sprague-Dawley rat model assessed as reduction in citral-induced prostate weight at 10 mg/kg, po qd co-administered with citral for 21 days starting post 8 days of citral alone treatment; type: functional; design: scale not given: the % may be the effect or the level left
Rattus norvegicus [7] = assay: Toxicity in benign prostatic hyperplasia Sprague-Dawley rat model assessed as effect on seminal vesicle weight at 10 mg/kg, po qd co-administered with citral for 21 days starting post 8 days of citral alone treatment; type: organism-based; details: in vivo
Rattus norvegicus [8] = assay: Toxicity in benign prostatic hyperplasia Sprague-Dawley rat model assessed as effect on testis weight at 10 mg/kg, po qd co-administered with citral for 21 days starting post 8 days of citral alone treatment; type: organism-based; details: in vivo
Rattus norvegicus [9] = assay: Toxicity in benign prostatic hyperplasia Sprague-Dawley rat model assessed as effect on epididymis weight at 10 mg/kg, po qd co-administered with citral for 21 days starting post 8 days of citral alone treatment; type: organism-based; details: in vivo
Rattus norvegicus [10] = assay: (§1) Anti-androgenic activity in citral-induced benign prostatic hyperplasia Sprague-Dawley rat model assessed as reduction in stromal component at 10 mg/kg, po qd co-administered with citral for 21 days starting post 8 days of citral alone treatment by hematoxyline and eosin staining based light microscopic analysis; type: functional, organism-based
Rattus norvegicus [11] = assay: as §1, with “tissue differentiation into stroma” for “stromal component”; type: functional, organism-based
Rattus norvegicus [12] = assay: as §1, with “tissue differentiation into acinar compartments” for “stromal component”; type: functional, organism-based

Molecule O=C(CCl)N1CCN(c2ncccn2)CC1 has an EC50 (LNCaP [1]) of 71.3 µM.

Molecule O=C(CN1CCN(c2ncccn2)CC1)N1CCN(c2ncccn2)CC1 has an EC50 (LNCaP [1]) of 48.2 µM.

In the case of CCOc1ccccc1OCCN[C@H](C)Cc1ccc(OC)c(S(N)(=O)=O)c1, the fold change (FC) [2] is reported as 1.6.

In the case of O=C(N1CCN(c2ccc([N+](=O)[O-])cc2)CC1)N1CCN(c2ccccn2)CC1, the EC50 (LNCaP [1]) is reported as 69.5 µM.

In the case of COc1ccccc1N1CCN(C(=O)CN2CCN(c3ccccn3)CC2)CC1, the EC50 (LNCaP [1]) is reported as 45.9 µM.

O=C(CN1CCN(c2ccccn2)CC1)N1CCN(c2ccc([N+](=O)[O-])cc2)CC1 was tested, and the EC50 (LNCaP [1]) was 55.2 µM.

In the case of O=C(CCl)N1CCN(c2ccc(C(F)(F)F)cc2[N+](=O)[O-])CC1, the EC50 (LNCaP [1]) is reported as 41.1 µM.

For COc1ccccc1N1CCN(C(=O)CCl)CC1, the EC50 (LNCaP [1]) was 7.6 µM, the Activity [3] was “Active” and the EC50 (PC-3) was over 80 µM. For the same molecule, the EC50 (DU-145) was over 80 µM, the EC50 (LNCaP [4]) was 7.6 µM and the fold change (FC) [5] was 1.6.

Work on O=C(CN1CCN(c2ccc([N+](=O)[O-])cc2)CC1)N1CCN(c2ncccn2)CC1 yielded an EC50 (LNCaP [1]) of 67.9 µM.

Molecule O=C(N1CCN(c2ccc([N+](=O)[O-])c(C(F)(F)F)c2)CC1)N1CCN(c2ccccn2)CC1 has an EC50 (LNCaP [1]) of 79.8 µM.

For CC(C)C(=O)Nc1ccc([N+](=O)[O-])c(C(F)(F)F)c1 [FLUTAMIDE], the EC50 (LNCaP [1]) was 7 µM, the Activity (Rattus norvegicus [6]) was 51.8% and the Activity (Rattus norvegicus [7]) was “Non-Toxic”. The Activity (Rattus norvegicus [8]) was “Non-Toxic”, the Activity (Rattus norvegicus [9]) was “Non-Toxic” and the Activity (Rattus norvegicus [10]) was “Active”. For the same molecule, the Activity (Rattus norvegicus [11]) was “Active” and the Activity (Rattus norvegicus [12]) was “Active”.

COc1ccccc1N1CCN(C(=O)CN2CCN(c3ccc([N+](=O)[O-])cc3)CC2)CC1 showed an EC50 (LNCaP [1]) of 63.1 µM.

Molecule COc1ccccc1N1CCN(CC(=O)N2CCN(c3ccccc3OC)CC2)CC1 has an EC50 (LNCaP [1]) of 52.2 µM.
